Measurements from patent publication US11694765B2, “Interrogatory cell-based assays for identifying drug-induced toxicity markers” (Berg LLC, priority 2012, dated 2023).

Columns and labels:
[1] = system: human mitochondrial energy metabolism genes in diabetic cardiomyocytes; experiment: Transcriptional profiling of mitochondrial energy metabolism genes in diabetic cardiomyocytes; format: cell-based; details: diabetic drug plus rescue molecule (T+R) vs untreated (UT)
Experimental: (§1) Human cardiomyocytes were subject to conditions simulating an diabetic environment experienced by the disease-relevant cells in vivo. Specifically, the cells were exposed to hyperglycemic conditions and hyperlipidemia conditions. The hyperglycemic condition was induced by culturing cells in media containing 22 mM glucose. The hyperlipidemia condition was induced by culturing the cells in media containing 1 mM L-carnitine, 0.7 mM Oleic acid and 0.7 mM Linoleic acid. […]
Cell samples from each condition with each perturbation treatment were collected at various times following treatment, including after 6 hours of treatment. For certain conditions, media samples were also collected and analyzed.
iProfiling of changes in total cellular protein expression by quantitative proteomics was performed for cell and media samples collected for each condition and with each “environmental perturbation”, i.e, diabetic drug treatment, Coenzyme Q10 treatment or both, using the techniques described above in the detailed description. […] Following data collection (Ct), the final fold change over control was determined using the δCt method as outlined in manufacturer's protocol. […] Functional assays such as Oxygen consumption rate OCR were measured by employing the Seahorse analyzer essentially as recommended by the manufacturer. […]

normal fibroblast = details: co-administration with VEGF; cited from earlier work
[2] = system: GPAT1 and TAZ in hyperglycemia conditioned cardiomyocytes; experiment: Western blotting of GPAT1 and TAZ protein expression in cardiomyocytes; format: cell-based, human; details: diabetic drug plus rescue molecule (T+R)
Experimental: Human cardiomyocytes were subject to conditions simulating an diabetic environment experienced by the disease-relevant cells in vivo. Specifically, the cells were exposed to hyperglycemic conditions and hyperlipidemia conditions. The hyperglycemic condition was induced by culturing cells in media containing 22 mM glucose. The hyperlipidemia condition was induced by culturing the cells in media containing 1 mM L-carnitine, 0.7 mM Oleic acid and 0.7 mM Linoleic acid.
The cell model comprising the above-mentioned cells, wherein the cells were exposed to each condition described above, was additionally “interrogated” by exposing the cells to an “environmental perturbation” by treating with a diabetic drug (T) which is known to cause cardiotoxicity, a rescue molecule (R) or both the diabetic drug and the rescue molecule (T+R). Specifically, the cells were treated with diabetic drug; or treated with rescue molecule Coenzyme Q10 at 0, 50 μM, or 100 μM; or treated with both of the diabetic drug and the rescue molecule Coenzyme Q10.
Protein expression levels of GPAT1 and TAZ for each condition and each treatment were tested with western blotting.

melanoma cell = details: in the presence of VEGF; cited from earlier work
[3] = system: hyperglycemia conditioned cardiomyocytes; experiment: Mitochondrial oxygen consumption rate (Seahorse analyzer); format: cell-based, human; details: diabetic drug plus rescue molecule (T1+R or T2+R)
Experimental: as §1
iProfiling of changes in total cellular protein expression by quantitative proteomics was performed for cell and media samples collected for each condition and with each “environmental perturbation”, i.e, diabetic drug treatment, Coenzyme Q10 treatment or both, using the techniques described above in the detailed description. […] Following data collection (Ct), the final fold change over control was determined using the δCt method as outlined in manufacturer's protocol. […] Functional assays such as Oxygen consumption rate OCR were measured by employing the Seahorse analyzer essentially as recommended by the manufacturer. OCR was recorded by the electrodes in a 7 μl chamber created with the cartridge pushing against the seahorse culture plate. […]

**Q.** Which “transcriptional network and expression of human mitochondrial energy metabolism genes” value [1] does the source give for `COC1=C(OC)C(=O)C(C/C=C(\C)CC/C=C(\C)CC/C=C(\C)CC/C=C(\C)CC/C=C(\C)CC/C=C(\C)CC/C=C(\C)CC/C=C(\C)CC/C=C(\C)CCC=C(C)C)=C(C)C1=O` [Coenzyme Q10] here?
**A.** normalize gene expression and transcription

**Q.** What about the “transcriptional network and expression of human mitochondrial energy metabolism genes” value ([1]; listed as rescue molecule) of the same compound?
**A.** normalizes gene expression

**Q.** And the “levels of Bcl2” value (normal fibroblast)?
**A.** no effect

**Q.** What about the “protein expression level of GPAT1” value [2] of the same compound?
**A.** normalized

**Q.** And the “protein expression level of TAZ” value [2]?
**A.** normalized

**Q.** And the “level of Bcl2” value (melanoma cell)?
**A.** decreased

**Q.** And the “mitochondrial oxygen consumption rate (OCR)” value [3]?
**A.** normalized

**Q.** What about the “mitochondrial oxygen consumption rate (OCR)” value ([3]; listed as rescue molecule) of the same compound?
**A.** normalizes OCR
